From publication PMC5362899, “Structural insights into the nucleotide base specificity of P2X receptors” (Scientific Reports, 2017)

Biological target: T1, rat P2X4 rT186V mutant (Rattus norvegicus, UniProt P51577, T186V)
T1 construct: rat P2X4 (NP_113782.1; WT and mutants) were transcribed from pGEMHE plasmids; expressed in transfected cells; host or cells: Xenopus laevis oocytes injected with cRNA from pGEMHE
T1 sequence (P51577 1-388 T186V): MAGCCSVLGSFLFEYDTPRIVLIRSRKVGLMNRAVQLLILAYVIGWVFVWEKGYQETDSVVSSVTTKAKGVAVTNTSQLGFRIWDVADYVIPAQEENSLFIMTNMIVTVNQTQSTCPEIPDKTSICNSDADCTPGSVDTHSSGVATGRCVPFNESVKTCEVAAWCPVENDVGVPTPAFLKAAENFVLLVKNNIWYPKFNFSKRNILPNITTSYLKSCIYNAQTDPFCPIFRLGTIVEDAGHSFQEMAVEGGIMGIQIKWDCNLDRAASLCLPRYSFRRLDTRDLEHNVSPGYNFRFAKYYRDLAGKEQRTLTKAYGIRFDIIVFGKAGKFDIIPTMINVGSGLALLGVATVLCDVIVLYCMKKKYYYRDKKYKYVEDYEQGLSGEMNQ
Assay: Two-Electrode Voltage Clamp recording, rat P2X4 T186V mutant in Xenopus oocytes
Type: cell-based
Details: 3 mM ATP, 3 mM CTP (Fig. S3)
Excerpt: To further investigate the functional roles of the residues involved in the base recognition, T189 and R143, we performed an electrophysiological analysis with the rat P2X4, since its electrophysiological properties have been well established. We first assessed the functional role of T189 in zfP2X4 and introduced mutations at the equivalent residue of the rat P2X4 to create three mutants (^rT186A, ^rT186V and ^rT186S; the superscript “r” means rat P2X4). […] Therefore, we examined the ^rWT and the ^rT186S mutant.
The cRNAs encoding zebrafish P2X4 (NP_705939; WT) and rat P2X4 (NP_113782.1; WT and mutants) were transcribed from pGEMHE plasmids, using a mMessage mMachine® T7 ULTRA kit (Ambion, Huntingdon, Cambridgeshire, UK). Xenopus laevis oocytes were prepared, and RNA (100 ng for zebrafish P2X4, and 20 ng for rat P2X4) was injected into the oocytes. The oocytes were incubated at 18 °C in Barth’s solution, containing 88 mM NaCl, 1 mM KCl, 2.4 mM NaHCO3, 10 mM HEPES, 0.33 mM Ca(NO3)2, 0.41 mM CaCl2, and 0.82 mM MgSO4, pH 7.4, supplemented with 50 μg/ml gentamicin, and were used for recording after 2–3 days. […] Oocytes were held at −70 mV with a bath-clamp amplifier (OC-725C, Warner Co., USA), and macroscopic currents were recorded and analyzed using the pClamp 10 software (Molecular Devices, USA)[33][34]. We measured n = 4 for zebrafish P2X4 data and n = 7–9 for rat P2X4 data. […]

Row | SMILES | nucleotide-evoked currents
1 | Nc1ncnc2c1ncn2[C@@H]1O[C@H](COP(=O)(O)OP(=O)(O)OP(=O)(O)O)[C@@H](O)[C@H]1O [ATP, Adenosine 5-triphosphate] | no ATP- and CTP-evoked currents were detected
2 | Nc1ccn([C@@H]2O[C@H](COP(=O)(O)OP(=O)(O)OP(=O)(O)O)[C@@H](O)[C@H]2O)c(=O)n1 [CTP] | no ATP- and CTP-evoked currents were detected
